Key:
Experiment in all cases: relative viability (nuclei count vs DMSO), 5 days (fraction); higher = more cells survive
[1] = compound: CCc1c2c(nc3ccc(OC(=O)N4CCC(N5CCCCC5)CC4)cc13)-c1cc3c(c(=O)n1C2)COC(=O)[C@]3(O)CC [Irinotecan] + O=C(c1cc(Cc2n[nH]c(=O)c3ccccc23)ccc1F)N1CCN(C(=O)C2CC2)CC1 [Olaparib] (partner 8 µM)
How it was run: (§1)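 Dosing by pin tool came one day after lung cancer cell lines were seeded in 1536-well plates, using either one drug or a fixed anchor-drug dose plus five library-drug doses (not always all listed) in √10 steps. After 5 days, nuclei were counted on 4× images. Relative viability is treated-well nuclei count divided by vehicle-well nuclei count, and values are medians of duplicate plates.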

[2] = compound: CC[C@@H](C)CNCC(=O)N1CCC2=C([C@@H]1COC3=CC=CC(=C3)C)C=CS2 [RU-SKI 43] + Nc1ncn([C@H]2C[C@H](O)[C@@H](CO)O2)c(=O)n1 [Decitabine] (partner 2 µM)
How it was run: as §1

[3] = compound: Cn1cc(-c2cnc3ccc4ccc(CS(=O)(=O)NCc5ccccn5)cc4c(=O)c3c2)cn1 [MK-8033] + C[C@@H](Oc1cc(-c2cnn(C3CCNCC3)c2)cnc1N)c1c(Cl)ccc(F)c1Cl [Crizotinib] (partner 1 µM)
How it was run: as §1

[4] = compound: Cn1cc(-c2cnc3ccc4ccc(CS(=O)(=O)NCc5ccccn5)cc4c(=O)c3c2)cn1 [MK-8033] + C[C@]1(O)C[C@@H](c2nc(-c3ccc4ccc(-c5ccccc5)nc4c3)c3c(N)nccn32)C1 [Linsitinib] (partner 1 µM)
How it was run: as §1

Cell Line	relative viability ([1]; first compound 0.6325 µM)	relative viability ([1]; first compound 2 µM)	relative viability ([1]; first compound 6.325 µM)	relative viability ([1]; first compound 20 µM)	relative viability ([2]; first compound 0.1 µM)	relative viability ([2]; first compound 0.3162 µM)	relative viability ([2]; first compound 1 µM)	relative viability ([2]; first compound 3.162 µM)	relative viability ([2]; first compound 10 µM)	relative viability ([3]; first compound 0.02 µM)	relative viability ([3]; first compound 0.06325 µM)	relative viability ([3]; first compound 0.2 µM)	relative viability ([3]; first compound 0.6325 µM)	relative viability ([3]; first compound 2 µM)	relative viability ([4]; first compound 0.02 µM)	relative viability ([4]; first compound 0.06325 µM)	relative viability ([4]; first compound 0.2 µM)	relative viability ([4]; first compound 0.6325 µM)	relative viability ([4]; first compound 2 µM)
BEN	0.681	0.53	0.425	0.528	0.806	0.692	0.812	0.729	0.78	0.895	0.763	0.838	0.89	0.773	0.906	0.859	0.765	0.844	0.853
COR-L23	0.162	0.215	0.191	0.0964	0.428	0.369	0.448	0.514	0.433	0.58	0.721	0.489	0.73	0.506	0.88	0.849	0.824	0.993	0.902
COR-L 105	0.644	0.513	0.552	0.425	0.625	0.674	0.703	0.629	0.625	0.797	0.696	0.917	0.861	0.802	0.868	1.04	0.838	0.902	0.915
EKVX		0.539	0.275	0.224	0.303	0.254	0.146	0.342	0.365	0.966	0.735	0.799	0.908	0.601	1	1.01	0.856	1.05	0.994
EMC-BAC-2	0.276	0.292	0.274	0.158	0.984	0.965	1.02	0.997	1.03	0.76	0.77	0.718	0.783	0.701	0.774	0.771	0.744	0.893	0.791
EPLC-272H	0.508	0.547	0.307	0.218	0.358	0.369	0.324	0.365	0.353	1.09		0.88	0.843	0.866	1.17		1.01	1.07	1.17
H3255	0.464	0.446	0.343	0.362	0.564	0.697	0.683	0.619	0.579	0.951	0.759	0.775	0.625	0.787	1.03	0.815	0.903	0.991	0.826
HARA	0.466	0.405	0.2	0.262	0.497	0.682	0.566	0.46	0.47	0.964	1.05	0.921	1.08	1.04	0.779	0.78	0.893	1.03	0.897
HCC-15	0.213	0.279	0.202	0.146	0.545	0.688	0.732	0.606	0.587	0.778	0.796	0.762	0.816	0.808	0.763	0.851	0.83	0.911	0.801
HCC-44	0.754	0.423	0.378	0.425	0.98	0.911	0.922	0.977	0.953	0.808	0.732	0.755	0.746	0.756	0.615	0.661	0.617	0.654	0.688
HCC-78	0.492	0.332	0.233	0.343	0.676	0.602	0.781	0.667	0.639	0.336	0.316	0.344		0.32	0.474	0.501	0.474		0.581
HCC-366	0.206	0.15	0.0823	0.0649	0.3	0.399	0.328	0.354	0.352	0.45	0.525	0.59	0.363	0.504	0.675	0.565	0.619	0.587	0.643
HCC-827	0.379	0.236	0.212	0.165	0.336	0.269	0.395	0.288	0.315	0.925		0.955	0.874	0.885	0.957		0.947	0.968	0.948
HOP-62		0.201	0.147	0.169	0.231	0.179	0.248	0.202	0.209	0.857	0.899	0.808	0.894	0.878	0.62	0.99	0.898	0.895	1.01
LC-2-ad	0.389	0.337	0.282	0.24	0.866	0.766	0.81	0.849	0.728	0.423	0.347	0.393	0.447	0.445	0.82	0.75	0.796	0.822	0.795
LCLC-97TM1	0.0852	0.144	0.0736	0.13	0.24	0.239	0.243	0.237	0.246	0.393	0.261	0.508	0.383	0.379	0.173	0.149	0.202	0.181	0.207
LCLC-103H	0.469	0.483	0.407	0.444	0.728	0.762	0.732	0.764	0.72	1.02	0.926	0.99	1.06	1.04	1.01	1.04	1.05	1.11	1.17
